Drawing on ChEMBL document CHEMBL1240460, “Design, synthesis and antifungal activity of isosteric analogues of benzoheterocyclic N-myristoyltransferase inhibitors” (2010), this text covers MIC80 for 21 molecules.

The term MIC80 denotes an inhibitory concentration at the 80% level, which refers to growth in some studies and to a panel of isolates in others. A lower MIC80 goes with higher susceptibility.

Assay type in all cases: functional
For test [1], the system named is Cryptococcus neoformans. Description: Antifungal activity against Cryptococcus neoformans by serial dilution method.
Test [2] relates to Candida parapsilosis. Description: Antifungal activity against Candida parapsilosis by serial dilution method. Conditions: Lodderomyces parapsilosis.
Test [3] deals with Candida albicans. Put plainly: Antifungal activity against Candida albicans by serial dilution method.
In test [4] the test system is Aspergillus fumigatus. Description: Antifungal activity against Aspergillus fumigatus by serial dilution method.
For test [5], the system named is Candida tropicalis. Description: Antifungal activity against Candida tropicalis by serial dilution method.
Test [6] relates to Trichophyton rubrum. Put plainly: Antifungal activity against Trichophyton rubrum by serial dilution method.
Test [7] concerns Nannizzia gypsea. Description: Antifungal activity against Microsporum gypseum by serial dilution method.

Values after ≈ are worked out from the molar mass of the structure shown.

Take `Fc1cccc(F)c1OCc1nc2c(OCCCNCc3cccnc3)cccc2o1`: the MIC80 in test [1] is 64 µg/mL (≈ 150 µM); in test [2] it was 4 µg/mL (≈ 9.4 µM); in test [3], 64 µg/mL (≈ 150 µM); in test [4], above 64 µg/mL; in test [5] it was 1 µg/mL (≈ 2.35 µM).

Consider `O=C(Nc1ccc(Cl)cc1)c1cc2c(OCCCNCc3cccnc3)cccc2[nH]1`, for which the MIC80 was above 128 µg/mL in test [1]; 128 µg/mL (≈ 294 µM) in test [6]; 32 µg/mL (≈ 73.6 µM) in test [7]; above 128 µg/mL in test [3]; above 128 µg/mL in test [4].

Consider `Fc1ccc(OCc2nc3c(OCCCNCc4cccnc4)cccc3o2)c(F)c1F`, for which the MIC80 was 64 µg/mL (≈ 144 µM) in test [1]; 0.25 µg/mL (≈ 0.564 µM) in test [2]; 0.25 µg/mL (≈ 0.564 µM) in test [3]; above 64 µg/mL in test [4]; 0.25 µg/mL (≈ 0.564 µM) in test [5].

For `O=C(Nc1ccc(F)c(F)c1)c1cc2c(OCCCNCc3cccnc3)cccc2[nH]1`, the MIC80 is 128 µg/mL (≈ 293 µM) in test [1]; 32 µg/mL (≈ 73.3 µM) in test [6]; 16 µg/mL (≈ 36.7 µM) in test [7]; above 128 µg/mL in test [3]; above 128 µg/mL in test [4].

For the molecule `Fc1ccc(OCc2cc3c(OCCCNCc4cccnc4)cccc3[nH]2)c(F)c1`, the MIC80 is 64 µg/mL (≈ 151 µM) in test [1]; 32 µg/mL (≈ 75.6 µM) in test [6]; 8 µg/mL (≈ 18.9 µM) in test [7]; above 128 µg/mL in test [3]; above 128 µg/mL in test [4].

For the molecule `O=C(Nc1ccccc1)c1cc2c(OCCCNCc3cccnc3)cccc2[nH]1`, the MIC80 in test [1] was above 128 µg/mL; in test [6], 64 µg/mL (≈ 160 µM); in test [7], 32 µg/mL (≈ 79.9 µM); in test [3], above 128 µg/mL; in test [4] it was above 128 µg/mL.

Consider `Fc1cc(F)c(OCc2nc3c(OCCCNCc4cccnc4)cccc3o2)c(F)c1`, for which the MIC80 in test [1] was determined as 16 µg/mL (≈ 36.1 µM); in test [2], 1 µg/mL (≈ 2.26 µM); in test [3], 16 µg/mL (≈ 36.1 µM); in test [4], 64 µg/mL (≈ 144 µM); in test [5], 1 µg/mL (≈ 2.26 µM).

For the molecule `CCOC(=O)c1cc2c(OCCCNCc3cccnc3)cccc2[nH]1`, the MIC80 in test [1] was above 128 µg/mL; in test [6] it was 64 µg/mL (≈ 181 µM); in test [7] it was 32 µg/mL (≈ 90.5 µM); in test [3], above 128 µg/mL; in test [4], above 128 µg/mL.

Regarding `O=C(Nc1cccc(F)c1)c1cc2c(OCCCNCc3cccnc3)cccc2[nH]1`, the MIC80 in test [1] is 128 µg/mL (≈ 306 µM); in test [6], 64 µg/mL (≈ 153 µM); in test [7], 32 µg/mL (≈ 76.5 µM); in test [3], 128 µg/mL (≈ 306 µM); in test [4], above 128 µg/mL.

For `O=[N+]([O-])c1cccc(OCc2nc3c(OCCCNCc4cccnc4)cccc3o2)c1`, the MIC80 in test [1] is above 64 µg/mL; in test [2], 4 µg/mL (≈ 9.21 µM); in test [3] it was above 64 µg/mL; in test [4] it was above 64 µg/mL; in test [5] it was 0.25 µg/mL (≈ 0.575 µM).

As for `CCOC(=O)c1oc2cccc(OCCCNCc3cccnc3)c2c1C`, the MIC80 in test [1] is 64 µg/mL (≈ 174 µM); in test [6], 4 µg/mL (≈ 10.9 µM); in test [2], 4 µg/mL (≈ 10.9 µM); in test [7] it was 4 µg/mL (≈ 10.9 µM); in test [3], 1 µg/mL (≈ 2.71 µM); in test [4] it was above 64 µg/mL. Besides, in test [5], the MIC80 was 1 µg/mL (≈ 2.71 µM).

As to `O=C(Nc1ccccc1Cl)c1cc2c(OCCCNCc3cccnc3)cccc2[nH]1`, the MIC80 in test [1] is above 128 µg/mL; in test [6] it was 128 µg/mL (≈ 294 µM); in test [7] it was 2 µg/mL (≈ 4.6 µM); in test [3], above 128 µg/mL; in test [4], above 128 µg/mL.

For the molecule `Fc1ccc(OCc2nc3c(OCCCNCc4cccnc4)cccc3o2)cc1`, the MIC80 in test [1] was 16 µg/mL (≈ 39.3 µM); in test [2], 1 µg/mL (≈ 2.45 µM); in test [3] it was 16 µg/mL (≈ 39.3 µM); in test [4], above 64 µg/mL; in test [5], 1 µg/mL (≈ 2.45 µM).

In the case of `Fc1ccccc1OCc1nc2c(OCCCNCc3cccnc3)cccc2o1`, the MIC80 was 16 µg/mL (≈ 39.3 µM) in test [1]; 1 µg/mL (≈ 2.45 µM) in test [2]; 4 µg/mL (≈ 9.82 µM) in test [3]; above 64 µg/mL in test [4]; 0.0625 µg/mL (≈ 0.153 µM) in test [5].

`Fc1ccc(OCc2cc3c(OCCCNCc4cccnc4)cccc3[nH]2)cc1`: the MIC80 in test [1] was 128 µg/mL (≈ 316 µM); in test [6], 128 µg/mL (≈ 316 µM); in test [7] it was 32 µg/mL (≈ 78.9 µM); in test [3] it was above 128 µg/mL; in test [4] it was above 128 µg/mL.

As to `c1ccc(SCc2cc3c(OCCCNCc4cccnc4)cccc3[nH]2)cc1`, the MIC80 in test [1] is 64 µg/mL (≈ 159 µM); in test [6], 64 µg/mL (≈ 159 µM); in test [7], 8 µg/mL (≈ 19.8 µM); in test [3], 128 µg/mL (≈ 317 µM); in test [4] it was above 128 µg/mL.

Consider `Cc1c(COc2ccc(F)c(F)c2F)oc2cccc(OCCCNCc3cccnc3)c12`, for which the MIC80 in test [1] came to 0.5 µg/mL (≈ 1.1 µM); in test [6] it was 1 µg/mL (≈ 2.19 µM); in test [2], 0.0625 µg/mL (≈ 0.137 µM); in test [7] it was 2 µg/mL (≈ 4.38 µM); in test [3], 0.125 µg/mL (≈ 0.274 µM); in test [4], 16 µg/mL (≈ 35.1 µM). The molecule further yielded an MIC80 in test [5] of 0.125 µg/mL (≈ 0.274 µM).

As to `Fc1ccc(OCc2nc3c(OCCCNCc4cccnc4)cccc3o2)c(F)c1`, the MIC80 in test [1] is 16 µg/mL (≈ 37.6 µM); in test [2], 0.25 µg/mL (≈ 0.588 µM); in test [3], 1 µg/mL (≈ 2.35 µM); in test [4], above 64 µg/mL; in test [5] it was 1 µg/mL (≈ 2.35 µM).

`c1ccc(OCc2nc3c(OCCCNCc4cccnc4)cccc3o2)cc1`: the MIC80 in test [1] was 64 µg/mL (≈ 164 µM); in test [2], 1 µg/mL (≈ 2.57 µM); in test [3], 16 µg/mL (≈ 41.1 µM); in test [4], above 64 µg/mL; in test [5], 0.25 µg/mL (≈ 0.642 µM).

On to `OC(Cn1cncn1)(Cn1cncn1)c1ccc(F)cc1F` [FLUCONAZOLE], for which the MIC80 is 1 µg/mL (≈ 3.27 µM) in test [1]; 1 µg/mL (≈ 3.27 µM) in test [6]; 4 µg/mL (≈ 13.1 µM) in test [2]; 16 µg/mL (≈ 52.2 µM) in test [7]; 0.25 µg/mL (≈ 0.816 µM) in test [3]; above 64 µg/mL in test [4]. In addition, the MIC80 in test [5] was 4 µg/mL (≈ 13.1 µM).

Turning to `Clc1cccc(Cl)c1SCc1cc2c(OCCCNCc3cccnc3)cccc2[nH]1`, the MIC80 in test [1] was 64 µg/mL (≈ 135 µM); in test [6] it was 16 µg/mL (≈ 33.9 µM); in test [7], 4 µg/mL (≈ 8.47 µM); in test [3], 64 µg/mL (≈ 135 µM); in test [4] it was above 128 µg/mL.
